Each structure is given as a SMILES string. Values after ≈ are worked out from the molar mass of the structure shown. “Also recorded” adds a separate entry of the source. Where a name gives a salt, the structure may show the parent alone. Read-outs that look alike come from different tables or passages of the source.

The values that follow come from US10676473B2, “Solid state forms of fused heteroaromatic pyrrolidinones” (TAKEDA PHARMACEUTICAL COMPANY LIMITED, priority 2014, dated 2020).

Series [1] in a line: Gravimetric vapour sorption (GVS) isotherm. Particulars: for hygroscopicity by GVS / GVS behaviour (dehydration, crystallisation, transformation): 25° C.; for hygroscopicity by GVS: subjected to humidity (various RH levels); for GVS behaviour (dehydration, crystallisation, transformation): RH as stated in the value; for change in form / XRPD pattern post GVS analysis: XRPD after the isotherm; for GVS mass / total weight change: between 0-90% RH; for water exchanged (GVS): between 0 and 90% RH. It counts as physicochemical. As to the method: Sorption isotherms were obtained using a SMS DVS Intrinsic moisture sorption analyser, controlled by DVS Intrinsic Control software v1.0.0.30. The sample temperature was maintained at 25° C. by the instrument controls. The humidity was controlled by mixing streams of dry and wet nitrogen, with a total flow rate of 200 ml/min The relative humidity was measured by a calibrated Rotronic probe (dynamic range of 1.0-100% RH), located near the sample. The weight change, (mass relaxation) of the sample as a function of % RH was constantly monitored by the microbalance (accuracy ±0.005 mg).
Typically 5-20 mg of sample was placed in a tared mesh stainless steel basket under ambient conditions. The sample was loaded and unloaded at 40% RH and 25° C. (typical room conditions). A moisture sorption isotherm was performed as outlined below (2 scans giving 1 complete cycle). The standard isotherm was performed at 25° C. at 10% RH intervals over a 0-90% RH range. Data analysis was undertaken in Microsoft Excel using DVS Analysis Suite v6.0.
The sample was recovered after completion of the isotherm and re-analyzed by XRPD.

Series [2] is described as follows: Storage at elevated temperature/humidity, form checked by XRPD. It counts as physicochemical. Particulars: for stability on storage: duration not given; for stability to moisture / humidity: exposure to humidity.
The nature of series [3]: Plasma pharmacokinetics in patients, oral once daily dosing. Particulars: human, in vivo. The procedure: (§1) Patients aged ≥18 yrs with advanced solid tumors/lymphoma whose disease failed standard therapies received oral Compound 1 citrate (Form 1) daily (QD, 60-120 mg) in 28 day cycles. To determine the maximum tolerated dose, dose escalation proceeded via modified titration design based on dose limiting toxicity or any drug-related grade ≥2 adverse event (AE) during cycle 1. Blood samples for plasma pharmacokinetic assessments were collected pre-dose and post-dose on day 1 and day 15 of cycle 1. Response assessments per RECIST for solid tumors and per IWG criteria for lymphoma were performed between day 22 and day 29 (pre-dose) of cycle 2, 4 and 6, and every 3 cycles thereafter.

The nature of series [4]: Safety and dose limiting toxicity in the dose escalation study in patients. It counts as in vivo, human. The procedure:
as §1

The subject of series [5] is advanced solid tumors/lymphoma. The experiment in a line: Response assessment (RECIST / IWG criteria) in patients. It counts as in vivo, human. As to the method:
as §1

A short description of series [6]: Solubility of solid forms. The class given is physicochemical.
Where [7] appears, read: DLBCL, 60 mg QD, after 2 cycles.

`Cn1cc(-c2nc(N[C@@H]3CCCC[C@@H]3N)c(F)c3c2C(=O)NC3)cn1` [Compound 1 citrate, 6-(((1R,2S)-2-aminocyclohexyl)amino)-7-fluoro-4-(1-methyl-1H-pyrazol-4-yl)-1H-pyrrolo[3,4-c]pyridin-3(2H)-one citrate]: the “hygroscopicity by GVS” value in series [1] (citrate) is on record as “non hygroscopic”.

As for `Cn1cc(-c2nc(N[C@@H]3CCCC[C@@H]3N)c(F)c3c2C(=O)NC3)cn1` [Compound 1 free base, 6-((1R,2S)-2-aminocyclohexylamino)-7-fluoro-4-(1-methyl-1H-pyrazol-4-yl)-1H-pyrrolo[3,4-c]pyridine-3(2H)-one], the “GVS behaviour (dehydration, crystallisation, transformation)” value (“GVS behaviour” for short) in series [1] was “the methanol solvate desolvated, however, the anhydrous form was found to be stable”. For the same compound, in series [2] (40° C./75% RH), the stability on storage result was “the methanol solvate desolvated, however, the anhydrous form was found to be stable”.

For orientation: Tmax means the time from dosing to the highest level. Consider `Cn1cc(-c2nc(N[C@@H]3CCCC[C@@H]3N)c(F)c3c2C(=O)NC3)cn1` [Form 1], for which, in series [1], the “hygroscopicity by GVS” value is recorded as “not hygroscopic”, the “change in form / XRPD pattern post GVS analysis” value is given as “No change in form was observed” and the “GVS mass / total weight change” value was “less than 0.3%”. In addition, the GVS variation result in series [1] (RH range not printed at the place) is recorded as “less than 0.3 % w/w”. The “change in form after storage” value in series [2] (25° C./97% RH for 1 week) was “No change in form was observed”. The “change in form after storage” value in series [2] (40° C./75% RH for 1 week) is reported as “No change in form was observed”. In series [3] (15 days), this compound had a mean accumulation of 2.7 fold. Also, the “coefficient of variation for dl 5 AUCtau (variability in steady-state exposures)” value in series [3] (po, 120 mg) was determined as 47%. Further, the Tmax in series [3] (plasma, 11 patients at 60 and 120 mg oral QD, read-out: median Tmax) stood at 2 h. Moreover, in series [4] (60 mg QD), the “patients died on study (deaths not related to study drug)” value was 3. Moreover, in series [4] (120 mg QD), the “patients died on study (deaths not related to study drug)” value is given as 1 patient. Besides, the “patients discontinued due to adverse events” value in series [4] (human, in vivo) was 3 patients. For the same compound, in series [4] (overall, 15 patients), the “patients died on study (deaths not related to study drug)” value was found to be 4 patients. For the same compound, the “DLBCL patients showing signs of response” value in series [5] (60 mg QD, after 2 cycles, 5 response-evaluable patients (4 DLBCL)) was found to be 2 patients. Further, in series [5] (setting [7]), the “patients with partial response” value was 1 and the “tumor reduction in 1 patient” value is listed as 25%. Besides, the “patients achieving partial response” value in series [5] (DLBCL, 80 mg, after 1 cycle, post data cut-off) came out at 1 patient.

With `Cn1cc(-c2nc(N[C@@H]3CCCC[C@@H]3N)c(F)c3c2C(=O)NC3)cn1` [Form 2], in series [1], the “GVS behaviour” value was “adsorbs moisture in the range of 40-80% relative humidity (RH) and undergoes a crystallization event above 80% RH; also recorded: undergoes a crystallisation event above 80% RH”; the “change in form / XRPD pattern post GVS analysis” value is “transformation to Form 1”. Further, the “GVS weight loss accompanying crystallization” value in series [1] (between 80% and 90% RH) stood at 7%. Moreover, the “moisture adsorbed (GVS)” value in series [1] (range of 40-80% RH) turned out to be 9 % w/w.

Take `Cn1cc(-c2nc(N[C@@H]3CCCC[C@@H]3N)c(F)c3c2C(=O)NC3)cn1` [Form 3, 6-(((1R,2S)-2-aminocyclohexyl)amino)-7-fluoro-4-(1-methyl-1H-pyrazol-4-yl)-1H-pyrrolo[3,4-c]pyridin-3(2H)-one hydrochloride dihydrate]: in series [1] (hydrochloride dihydrate), the “GVS behaviour” value is “subject to dehydration below 20% RH” and the “change in form / XRPD pattern post GVS analysis” value is listed as “No change in form was observed”. The “change in form after storage” value in series [2] (25° C./97% RH for 1 week) is “No change in form was observed”. The “change in form after storage” value in series [2] (40° C./75% RH for 1 week) is recorded as “No change in form was observed”.

As for `Cn1cc(-c2nc(N[C@@H]3CCCC[C@@H]3N)c(F)c3c2C(=O)NC3)cn1` [Form 4], in series [1], the “hygroscopicity by GVS” value is listed as “not hygroscopic; also recorded: non-hygroscopic”. Besides, the “change in form during storage” value in series [2] (25° C./97% RH for 10 days), in series [2] (40° C./75% RH for 10 days) and in series [2] (40° C./97% RH for 10 days) was “did not change form” throughout. In addition, the “stability to moisture / humidity” value in series [2] was “stable to moisture”.

By solubility is commonly meant the concentration that dissolves in the medium under given conditions. As to `Cn1cc(-c2nc(N[C@@H]3CCCC[C@@H]3N)c(F)c3c2C(=O)NC3)cn1` [Form 5], in series [1], the “hygroscopicity by GVS” value is recorded as “not hygroscopic” and the “change in form / XRPD pattern post GVS analysis” value is given as “did not change form”. Further, the “change in form during storage” value in series [2] (40° C./97% RH for 10 days) is listed as “did not change form”. The “stability to moisture / humidity” value in series [2] was “stable to moisture”. For the same compound, the solubility in series [6] (medium not given, read-out: solubility) was determined as 11000 µg/mL (≈ 31900 µM).

Consider `Cn1cc(-c2nc(N[C@@H]3CCCC[C@@H]3N)c(F)c3c2C(=O)NC3)cn1` [Form 6], for which the “GVS behaviour” value in series [1] is “adsorbs moisture and undergoes a crystallisation event above 70% RH”. In addition, in series [1] (between 40-60% RH), the GVS water uptake amounted to 5 % w/w. For the same compound, the GVS weight loss in series [1] (between 70-90% RH) is recorded as 3%. For the same compound, in series [2], the “stability to moisture / humidity” value was “seems to undergo a phase transformation, possibly leading to Form 9”.

The compound `Cn1cc(-c2nc(N[C@@H]3CCCC[C@@H]3N)c(F)c3c2C(=O)NC3)cn1` [Form 7] came in with a GVS water uptake in series [1] (RH range not given) of 10.5%. The “stability to moisture / humidity” value in series [2] was “unstable to humidity and converted back to a hydrated form (Form 9)”.

Regarding `Cn1cc(-c2nc(N[C@@H]3CCCC[C@@H]3N)c(F)c3c2C(=O)NC3)cn1` [Form 8], the “GVS behaviour” value in series [1] is “minimal weight variation between 10 and 90% RH”.

As for `Cn1cc(-c2nc(N[C@@H]3CCCC[C@@H]3N)c(F)c3c2C(=O)NC3)cn1` [Form 12], the “GVS behaviour” value in series [1] is “Hysterisis was observed between 40 and 60% RH; also recorded: possibility of the transformation of Form 12 to a hydrated form”. For the same compound, the “GVS mass / total weight change” value in series [1] is reported as “about 6%”. Besides, the stability on storage entry is on record as “not stable” in series [2] (25° C./97% RH) and “No obvious stability issues were noted” in series [2] (40° C./75% RH). Also, the solubility in series [6] (water, pH 9.41, pH 9.41, read-out: aqueous solubility) was found to be 580 µg/mL (≈ 1680 µM).

As to `Cn1cc(-c2nc(N[C@@H]3CCCC[C@@H]3N)c(F)c3c2C(=O)NC3)cn1` [Form 13], in series [1], the “hygroscopicity by GVS” value is “not hygroscopic”, the “change in form / XRPD pattern post GVS analysis” value is “no transformation to hydrates was observed” and the “GVS mass / total weight change” value is on record as “less than 0.6%”. Moreover, in series [2] (25° C./97% RH), the stability on storage entry was “stable”. Moreover, in series [2] (40° C./75% RH), the stability on storage result is given as “stable”. Also, the solubility in series [6] (water, pH 9.05, pH 9.05, read-out: aqueous solubility) is 190 µg/mL (≈ 552 µM).

In the case of `Cn1cc(-c2nc(N[C@@H]3CCCC[C@@H]3N)c(F)c3c2C(=O)NC3)cn1` [Form 14], in series [1], the “change in form / XRPD pattern post GVS analysis” value is given as “no change in the XRPD pattern was noted”, the “GVS mass / total weight change” value is 1.5% and the “water exchanged (GVS)” value is 0.25 eq. The stability on storage result in series [2] (25° C./97% RH) is on record as “stable”. The stability on storage entry in series [2] (40° C./75% RH) is recorded as “stable”.

By aqueous solubility is commonly meant the concentration that dissolves in the medium under given conditions. As for `Cn1cc(-c2nc(N[C@@H]3CCCC[C@@H]3N)c(F)c3c2C(=O)NC3)cn1` [Form 15], in series [1], the “change in form / XRPD pattern post GVS analysis” value was “no change in the XRPD pattern was noted”, the “GVS mass / total weight change” value is given as 2.0% and the “water exchanged (GVS)” value worked out at 0.4 eq. Also, the stability on storage entry in series [2] (25° C./97% RH) is recorded as “stable”. In series [2] (40° C./75% RH), the stability on storage result was “stable”. The compound further displayed an aqueous solubility in series [6] (pH 9.41) of 710 µg/mL (≈ 2060 µM).

As to `Cn1cc(-c2nc(N[C@@H]3CCCC[C@@H]3N)c(F)c3c2C(=O)NC3)cn1` [Form 16], the “GVS behaviour” value in series [1] is “dehydration below 30% RH; also recorded: stable at and above 30% RH at 25 °C and desolvated below 30% RH”. For the same compound, the stability on storage entry in series [2] (25° C./97% RH) and in series [2] (40° C./75% RH) was “No changes in the XRPD pattern were observed” each time. Also, in series [6] (water, pH 9.27, pH 9.27, read-out: aqueous solubility), the solubility was found to be 130 µg/mL (≈ 377 µM).

As to `Cn1cc(-c2nc(N[C@@H]3CCCC[C@@H]3N)c(F)c3c2C(=O)NC3)cn1` [Form 17], in series [1], the “change in form / XRPD pattern post GVS analysis” value is recorded as “no change in the XRPD pattern was noted” and the “water exchanged (GVS)” value worked out at 0.3 eq. Also, the stability on storage entry in series [2] (25° C./97% RH) is “stable”. The stability on storage result in series [2] (40° C./75% RH) is given as “stable”. Also, the solubility in series [6] (water, pH 9.33, pH 9.33, read-out: aqueous solubility) was 180 µg/mL (≈ 523 µM).
